According to ChEMBL document CHEMBL1127141, “Monocyclic -lactam inhibitors of human leukocyte elastase. Stereospecific synthesis and activity of 3,4-disubstituted-2-azetidinones” (Bioorg Med Chem Lett, 1993):

Assays:
[1] = target: T1, Neutrophil elastase (Homo sapiens) (UniProt P08246); test: Compound was evaluated for the inhibitory activity against Human leukocyte elastase
T1 sequence (whole entry): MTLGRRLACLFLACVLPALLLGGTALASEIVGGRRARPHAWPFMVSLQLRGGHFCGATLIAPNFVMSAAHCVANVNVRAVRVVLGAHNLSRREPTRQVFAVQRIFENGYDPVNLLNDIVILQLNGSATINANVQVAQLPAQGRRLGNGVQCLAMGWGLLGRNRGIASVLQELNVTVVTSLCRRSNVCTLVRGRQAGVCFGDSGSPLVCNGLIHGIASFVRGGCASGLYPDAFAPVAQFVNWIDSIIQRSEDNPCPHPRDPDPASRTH

Neutrophil elastase = target: T2, Neutrophil elastase (Homo sapiens, UniProt P08246); test: Compound was evaluated for the inhibitory activity against Human leukocyte elastase; […]
T2 sequence (P08246 whole entry): T1 sequence (whole entry)

K obs / 1 [1]	Ki (Neutrophil elastase)	SMILES
383 M⁻¹ s⁻¹		CC[C@@H]1C(=O)N(C(=O)NCc2ccccc2)[C@@H]1Oc1ccc(C(=O)O)cc1
	5.6 µM	CC[C@H]1C(=O)N(C(=O)NCc2ccccc2)[C@H]1Oc1ccc(C(=O)O)cc1
424 M⁻¹ s⁻¹		CC[C@@H]1C(=O)N(C(=O)NCc2ccccc2)[C@H]1Oc1ccc(C(=O)O)cc1
2480 M⁻¹ s⁻¹		CCC1C(=O)N(C(=O)NCc2ccccc2)C1Oc1ccc(C(=O)O)cc1 (trans isomer)
